From ChEMBL document CHEMBL3875216, “Synthesis of antimicrobial glucosamides as bacterial quorum sensing mechanism inhibitors” (Bioorg Med Chem, 2017)

Assays:
Pseudomonas aeruginosa [1] = test: Inhibition of LasR-dependent quorum sensing activity in Pseudomonas aeruginosa MH602 harboring GFP-fused […] LasB promoter assessed as inhibition of 3-oxo-dodecanoyl HSL-induced GFP expression at 2 mM measured after 8 hrs by fluorescence assay relative to control
Pseudomonas aeruginosa [2] = test: Inhibition of LasR-dependent quorum sensing activity in Pseudomonas aeruginosa MH602 harboring GFP-fused […] LasB promoter assessed as inhibition of 3-oxo-dodecanoyl HSL-induced GFP expression at 500 uM measured after 8 hrs by fluorescence assay relative to control
Escherichia coli [3] = test: Inhibition of LuxR-dependent quorum sensing activity in Escherichia coli MT102 harboring pJBA132 assessed as inhibition of OHHL-induced GFP expression at 2 mM measured after 8 hrs by fluorescence assay relative to control
Escherichia coli [4] = test: Inhibition of LuxR-dependent quorum sensing activity in Escherichia coli MT102 harboring pJBA132 assessed as inhibition of OHHL-induced GFP expression at 2 mM measured after 24 hrs by fluorescence assay relative to control
Escherichia coli [5] = test: Inhibition of LuxR-dependent quorum sensing activity in Escherichia coli MT102 harboring pJBA132 assessed as inhibition of OHHL-induced GFP expression at 1 mM measured after 8 hrs by fluorescence assay relative to control
Escherichia coli [6] = test: Inhibition of LuxR-dependent quorum sensing activity in Escherichia coli MT102 harboring pJBA132 assessed as inhibition of OHHL-induced GFP expression at 1 mM measured after 24 hrs by fluorescence assay relative to control
Pseudomonas aeruginosa [7] = test: Growth inhibition of Pseudomonas aeruginosa MH602 at 2 mM after 8 hrs relative to control; settings: MH602, 8 h, read-out: GI
Pseudomonas aeruginosa [8] = test: Growth inhibition of Pseudomonas aeruginosa MH602 at 2 mM after 24 hrs relative to control; settings: MH602, 24 h, read-out: GI
Pseudomonas aeruginosa [9] = test: Growth inhibition of Pseudomonas aeruginosa MH602 at 1 mM after 8 hrs relative to control; settings: MH602, 8 h, read-out: GI
Pseudomonas aeruginosa [10] = test: Growth inhibition of Pseudomonas aeruginosa MH602 at 1 mM after 24 hrs relative to control; settings: MH602, 24 h, read-out: GI
Pseudomonas aeruginosa [11] = test: Growth inhibition of Pseudomonas aeruginosa MH602 at 500 uM after 8 hrs relative to control; settings: MH602, 8 h, read-out: GI
Pseudomonas aeruginosa [12] = test: Growth inhibition of Pseudomonas aeruginosa MH602 at 500 uM after 24 hrs relative to control; settings: MH602, 24 h, read-out: GI
Escherichia coli [13] = test: Growth inhibition of Escherichia coli MT102 at 2 mM after 8 hrs relative to control; settings: MT102, 8 h, read-out: GI
Escherichia coli [14] = test: Growth inhibition of Escherichia coli MT102 at 2 mM after 24 hrs relative to control; settings: MT102, 24 h, read-out: GI
Escherichia coli [15] = test: Growth inhibition of Escherichia coli MT102 at 1 mM after 8 hrs relative to control; settings: MT102, 8 h, read-out: GI
Escherichia coli [16] = test: Growth inhibition of Escherichia coli MT102 at 1 mM after 24 hrs relative to control; settings: MT102, 24 h, read-out: GI
Escherichia coli [17] = test: Growth inhibition of Escherichia coli MT102 at 500 uM after 8 hrs relative to control; settings: MT102, 8 h, read-out: GI
Escherichia coli [18] = test: Growth inhibition of Escherichia coli MT102 at 500 uM after 24 hrs relative to control; settings: MT102, 24 h, read-out: GI
Pseudomonas aeruginosa [19] = test: Growth inhibition of Pseudomonas aeruginosa PA14 at 2 mM after 24 hrs relative to control; settings: 2000 µM
Pseudomonas aeruginosa [20] = test: Inhibition of LasR-dependent quorum sensing activity in Pseudomonas aeruginosa MH602 harboring GFP-fused […] LasB promoter assessed as inhibition of 3-oxo-dodecanoyl HSL-induced GFP expression at 2 mM measured after 24 hrs by fluorescence assay relative to control
Pseudomonas aeruginosa [21] = test: Inhibition of LasR-dependent quorum sensing activity in Pseudomonas aeruginosa MH602 harboring GFP-fused […] LasB promoter assessed as inhibition of 3-oxo-dodecanoyl HSL-induced GFP expression at 1 mM measured after 8 hrs by fluorescence assay relative to control
Escherichia coli [22] = test: Inhibition of LuxR-dependent quorum sensing activity in Escherichia coli MT102 harboring pJBA132 assessed as inhibition of OHHL-induced GFP expression at 500 uM measured after 8 hrs by fluorescence assay relative to control
[23] = system: Pseudomonas aeruginosa PA14; test: Inhibition of quorum sensing-regulated pyocyanin production in Pseudomonas aeruginosa PA14 at 2 mM after 24 hrs relative to control
[24] = system: Pseudomonas aeruginosa PA14; test: Inhibition of quorum sensing-regulated biofilm formation in Pseudomonas aeruginosa PA14 at 2 mM after overnight incubation by crystal violet staining based assay relative to control

Row | SMILES | inhibition (Pseudomonas aeruginosa [1]) [%] | inhibition (Pseudomonas aeruginosa [2]) [%] | inhibition (Escherichia coli [3]) [%] | inhibition (Escherichia coli [4]) [%] | inhibition (Escherichia coli [5]) [%] | inhibition (Escherichia coli [6]) [%] | inhibition at 2000 µM (Pseudomonas aeruginosa [7]) [%] | inhibition at 2000 µM (Pseudomonas aeruginosa [8]) [%] | inhibition at 1000 µM (Pseudomonas aeruginosa [9]) [%] | inhibition at 1000 µM (Pseudomonas aeruginosa [10]) [%] | inhibition at 500 µM (Pseudomonas aeruginosa [11]) [%] | inhibition at 500 µM (Pseudomonas aeruginosa [12]) [%] | inhibition at 2000 µM (Escherichia coli [13]) [%] | inhibition at 2000 µM (Escherichia coli [14]) [%] | inhibition at 1000 µM (Escherichia coli [15]) [%] | inhibition at 1000 µM (Escherichia coli [16]) [%] | inhibition at 500 µM (Escherichia coli [17]) [%] | inhibition at 500 µM (Escherichia coli [18]) [%] | growth inhibition (GI) (Pseudomonas aeruginosa [19]) | inhibition (Pseudomonas aeruginosa [21]) [%] | other results
1 | CC(=O)OC[C@H]1O[C@@H](OC(C)=O)[C@H](NC(=O)CC(=O)CCCc2ccccc2)[C@@H](OC(C)=O)[C@@H]1OC(C)=O | 24.4 | 6.5 | 12.8 | 34.2 | 26 | 43.4 | 24.8 | 0 | 11.7 | 19.6 | 0 | 0 | 21.8 | 5.1 | 2.6 | 4.9 | 3.3 | 0 | Non-Toxic |  | 
2 | CC(=O)OC[C@H]1O[C@@H](OC(C)=O)[C@H](NC(=O)CCc2c[nH]c3ccccc23)[C@@H](OC(C)=O)[C@@H]1OC(C)=O | 53.8 | 9.3 | 65.5 | 28.5 | 2.3 |  | 0 | 0 | 0 | 3.5 | 2.3 | 3.5 | 0 | 0 | 0 | 0 | 0 | 2.6 | Non-Toxic | 32.6 | inhibition (Pseudomonas aeruginosa [20]): 7.4%; inhibition (Escherichia coli [22]): 13.5%
3 | CCCCCCCCCC(=O)N[C@@H]1[C@@H](O)[C@H](O)[C@@H](CO)O[C@H]1O | 11.5 | 15.7 |  | 23.3 | 16.3 | 8.5 | 17.6 | 0 | 20.4 | 30.2 | 7.8 | 16.4 | 38.2 | 12.3 | 45 | 20 | 0 | 15.3 | Non-Toxic | 15.6 | inhibition [23]: 13.3%
4 | CCCC(=O)CC(=O)N[C@H]1[C@H](OC(C)=O)O[C@H](COC(C)=O)[C@@H](OC(C)=O)[C@@H]1OC(C)=O | 64.5 | 5.3 | 88.1 | 40.9 | 85.4 | 20.7 | 74.9 | 4.6 | 66.8 | 25.9 | 5.7 | 6.3 | 50.3 | 65.1 | 44.1 | 49.2 | 22.2 | 12.7 | Non-Toxic | 59.6 | inhibition [23]: 3.5%; inhibition [24]: 38.1%
5 | CCCCCCCC(=O)N[C@H]1[C@H](OC(C)=O)O[C@H](COC(C)=O)[C@@H](OC(C)=O)[C@@H]1OC(C)=O |  | 14.4 | 36 | 14 | 2.3 |  | 33.1 | 2.8 | 2.5 | 0 | 2.7 | 0 | 14.9 | 21.4 | 0 | 9.6 | 23.7 | 6.2 | Non-Toxic | 8.5 | inhibition (Pseudomonas aeruginosa [20]): 26.1%; inhibition [24]: 21.1%
6 | CC(=O)OC[C@H]1O[C@@H](OC(C)=O)[C@H](NC(=O)CCCc2ccccc2)[C@@H](OC(C)=O)[C@@H]1OC(C)=O | 5.2 | 7.3 |  | 43.8 | 18.1 | 21.1 | 37.2 | 3.3 | 30.9 | 25.9 | 7.3 | 0 | 93.2 | 26.7 | 64.7 | 19.7 | 15.1 | 5.2 | Non-Toxic | 4.9 | 
7 | CCCCCCCCCCCC(=O)N[C@@H]1[C@@H](O)[C@H](O)[C@@H](CO)O[C@H]1O |  | 12.6 |  |  | 4.6 |  | 32 | 28.7 | 30.9 | 37.2 | 25.5 | 19.4 | 28.6 | 11.7 | 46.2 | 14.3 | 23.2 | 14.3 | Non-Toxic |  | inhibition [23]: 20.7%; inhibition [24]: 2.3%
8 | CCCCCC(=O)N[C@@H]1[C@@H](O)[C@H](O)[C@@H](CO)O[C@H]1O | 10 | 12.9 |  | 42.7 | 10.7 | 15.8 | 19 | 3.1 | 10.5 | 19.2 | 7.1 | 0 | 24.6 | 0 | 11.7 | 8.4 | 0 | 0 | Non-Toxic | 13.1 | inhibition [24]: 9%
